Values after ≈ are worked out from the molar mass of the structure shown. Read-outs that look alike come from different tables or passages of the source.
Columns and labels:
Assay in all cases: Antimicrobial activity (MIC), standard method of the Japan Chemotherapeutic Society
Assay type in all cases: cell-based
S. flexneli, 2A 5503 = tested on: S. flexneli, 2A 5503
Source text: (§1) The antimicrobial activity of the compounds obtained in Examples 1 to 3 was examined in accordance with the standard method specified by the Japan Chemotherapeutic Society.

S. aureus, 209P = tested on: S. aureus, 209P
Source text: as §1

Pr. vulgaris, 08601 = tested on: Pr. vulgaris, 08601
Source text: as §1

Ps. aeruginosa, 32104 = tested on: Ps. aeruginosa, 32104
Source text: as §1

[1] = tested on: Ps. maltophilia, IID-1275
Source text: as §1

Pr. mirabilis, IFO-3849 = tested on: Pr. mirabilis, IFO-3849
Source text: as §1

Ser. marcescens, 10100 = tested on: Ser. marcescens, 10100
Source text: as §1

E. coli, NIHJ = tested on: E. coli, NIHJ
Source text: as §1

Str. pyrogenes, G-36 = tested on: Str. pyrogenes, G-36
Source text: as §1

S. aureaus, 870307 = tested on: S. aureaus, 870307
Source text: as §1

Ps. aeruginosa, 32121 = tested on: Ps. aeruginosa, 32121
Source text: as §1

S. epidermidis, 56500 = tested on: S. epidermidis, 56500
Source text: as §1

[2] = tested on: Str. faecalis, ATCC-19433
Source text: as §1

[3] = Pseudomonas aeruginosa, read-out: MIC

| SMILES | MIC (S. flexneli, 2A 5503; S. flexneli, 2A 5503) [ng/mL] | MIC (S. aureus, 209P) [ng/mL] | MIC (Pr. vulgaris, 08601) [µg/mL] | MIC (Ps. aeruginosa, 32104) [µg/mL] | MIC [1] [µg/mL] | MIC (Pr. mirabilis, IFO-3849) [µg/mL] | MIC (Ser. marcescens, 10100) [µg/mL] | MIC (E. coli, NIHJ) [ng/mL] | MIC (Str. pyrogenes, G-36) [µg/mL] | MIC (S. aureaus, 870307) [µg/mL] | MIC (Ps. aeruginosa, 32121) [µg/mL] | MIC (S. epidermidis, 56500) [µg/mL] | MIC [2] [µg/mL] | further results |
| --- | --- | --- | --- | --- | --- | --- | --- | --- | --- | --- | --- | --- | --- | --- |
| Cc1c(N2CC[C@H](CNC3CC3)C2)c(F)cc2c(=O)c(C(=O)O)cn([C@@H]3C[C@@H]3F)c12 [Example 1, 7-[3-(R)-Cyclopropylaminomethyl-1-pyrrolidinyl]-6-fluoro-1-[(1R,2S)-2-fluorocyclopropyl]-1,4-dihydro-8-methyl-4-oxoquinoline-3-carboxylic Acid] |  |  |  |  |  |  |  |  |  |  |  |  |  | MIC (S. flexneli, 2A 5503): 6 ng/mL (≈ 0.0144 µM); MIC (S. aureus, 209P; Staphylococcus aureus, read-out: MIC): ≤ 3 ng/mL; MIC (Pr. vulgaris, 08601; Proteus vulgaris, read-out: MIC): 0.006 µg/mL (≈ 0.0144 µM); MIC (Ps. aeruginosa, 32104; [3]): 0.2 µg/mL (≈ 0.479 µM); MIC ([1]; Stenotrophomonas maltophilia, IID1275, read-out: MIC): 0.05 µg/mL (≈ 0.12 µM); MIC (Pr. mirabilis, IFO-3849; Proteus mirabilis, IFO3849, read-out: MIC): 0.025 µg/mL (≈ 0.0599 µM); MIC (Ser. marcescens, 10100; Serratia marcescens, read-out: MIC): 0.1 µg/mL (≈ 0.24 µM); MIC (E. coli, NIHJ; Escherichia coli, read-out: MIC): ≤ 3 ng/mL; MIC (Str. pyrogenes, G-36; read-out: MIC): 0.013 µg/mL (≈ 0.0311 µM); MIC (S. aureaus, 870307; read-out: MIC): 0.025 µg/mL (≈ 0.0599 µM); MIC (Ps. aeruginosa, 32121; [3]): 0.1 µg/mL (≈ 0.24 µM); MIC (S. epidermidis, 56500; Staphylococcus epidermidis, read-out: MIC): 0.013 µg/mL (≈ 0.0311 µM); MIC ([2]; Enterococcus faecalis, ATCC19433, read-out: MIC): 0.025 µg/mL (≈ 0.0599 µM) |
| Cc1c(N2CC[C@H](CNC3CC3)C2)c(F)c(N)c2c(=O)c(C(=O)O)cn([C@@H]3C[C@@H]3F)c12.Cl [Example 3, 5-Amino-7-[(3R)-N-cyclopropylaminomethyl-1-pyrrolidinyl]-6-fluoro-1-[(1R,2S)-2-fluorocyclopropyl]-1,4-dihydro-8-methyl-4-oxoquinoline-3-carboxylic Acid Hydrochloride] | 6 | ≤ 3 | 0.05 | 0.39 | 0.10 | 0.10 | 0.20 | 6 | 0.013 | 0.025 | 0.20 | 0.006 | 0.05 |  |
| COc1c(N2CC[C@H](CNC3CC3)C2)c(F)c(N)c2c(=O)c(C(=O)O)cn([C@@H]3C[C@@H]3F)c12 [Example 2, 5-Amino-7-[3-(R)-(N-cyclopropylaminomethyl)-1-pyrrolidinyl]-6-fluoro-1-[(1R,2S)-2-fluorocyclopropyl]-1,4-dihydro-8-methoxy-4-oxocquinoline-3-carboxylic Acid] | 13 (≈ 0.029 µM) | ≤ 3 | 0.10 (≈ 0.223 µM) | 0.78 (≈ 1.74 µM) | 0.20 (≈ 0.446 µM) | 0.20 (≈ 0.446 µM) | 0.39 (≈ 0.87 µM) | 6 (≈ 0.0134 µM) | 0.025 (≈ 0.0557 µM) | 0.05 (≈ 0.111 µM) | 0.78 (≈ 1.74 µM) | 0.013 (≈ 0.029 µM) | 0.10 (≈ 0.223 µM) |  |

Reference: patent publication US6194434A, “Cycloalkylaminomethylpyrrolidine derivatives” (Daiichi Pharmaceutical Co., Ltd., priority 1996, dated 2001)
